# Experimental data published in ChEMBL document CHEMBL1201862, “PubChem BioAssay data set” (2004).
#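 Protocol summary: plate cells (96-well), add compound at 5 concentrations, incubate 48 h, interpolate endpoints linearly. GI50 = concentration required for 50% inhibition of growth.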 Active and inactive are the calls of the source. Cut-off read from the data, not from the text of the source: active = GI50 up to about 1.1 µM and inactive = higher.
# Tests used:
# Test in all cases: inhibition of tumour cell growth, NCI panel, 48 h
# [1] = tested on: A498
# [2] = tested on: DU-145
# [3] = tested on: HCT-116
# [4] = tested on: HOP-92
# [5] = tested on: IGROV-1
# [6] = tested on: M14
# [7] = tested on: MDA-MB-435
# [8] = tested on: NCI/ADR-RES
# [9] = tested on: OVCAR-5
# [10] = tested on: SNB-19
# [11] = tested on: T47D
# [12] = tested on: TK-10
# [13] = tested on: U-251
# [14] = tested on: UACC-62
# [15] = tested on: A549
# [16] = tested on: MOLT-4
# [17] = tested on: SF-539
# [18] = tested on: HCC 2998
Compound,GI50 [1],GI50 [2],GI50 [3],GI50 [4],GI50 [5],GI50 [6],GI50 [7],GI50 [8],GI50 [9],GI50 [10],GI50 [11],GI50 [12],GI50 [13],GI50 [14],GI50 [15],GI50 [16],GI50 [17],GI50 [18]
OC(c1ccc(F)cc1)C(F)(F)c1nc(-c2ccccc2)no1 (stereo not drawn),22.6 µM (inactive),21.2 µM (inactive),19.1 µM (inactive),23.7 µM (inactive),> 100 µM (inactive),17.9 µM (inactive),19.4 µM (inactive),30.6 µM (inactive),18.1 µM (inactive),36.4 µM (inactive),23.7 µM (inactive),38.3 µM (inactive),0.126 µM (active),18.2 µM (inactive),,,,
COC(=O)/C=C1/SC(/C(=C(/[O-])OC)[n+]2ccc3ccccc3c2)=NC1=O,> 100 µM (inactive),> 100 µM (inactive),> 100 µM (inactive),,> 100 µM (inactive),> 100 µM (inactive),> 100 µM (inactive),> 100 µM (inactive),> 100 µM (inactive),> 100 µM (inactive),> 100 µM (inactive),,67.5 µM (inactive),> 100 µM (inactive),> 100 µM (inactive),> 100 µM (inactive),23 µM (inactive),
Nc1ccc(Cc2ccc(N)c(C(=O)O)c2)cc1C(=O)O,> 100 µM (inactive),,> 100 µM (inactive),> 100 µM (inactive),> 100 µM (inactive),> 100 µM (inactive),> 100 µM (inactive),> 100 µM (inactive),> 100 µM (inactive),> 100 µM (inactive),> 100 µM (inactive),> 100 µM (inactive),> 100 µM (inactive),> 100 µM (inactive),> 100 µM (inactive),,> 100 µM (inactive),> 100 µM (inactive)
CC(C)(C)OC[C@H](O)CC#N,> 100 µM (inactive),> 100 µM (inactive),> 100 µM (inactive),,,> 100 µM (inactive),> 100 µM (inactive),,> 100 µM (inactive),> 100 µM (inactive),> 100 µM (inactive),> 100 µM (inactive),> 100 µM (inactive),> 100 µM (inactive),> 100 µM (inactive),> 100 µM (inactive),> 100 µM (inactive),> 100 µM (inactive)
CCOC(=O)n1c2ccccc2c(=O)n1CCO,> 100 µM (inactive),> 100 µM (inactive),> 100 µM (inactive),,> 100 µM (inactive),> 100 µM (inactive),,> 100 µM (inactive),> 100 µM (inactive),> 100 µM (inactive),7.45 µM (inactive),> 100 µM (inactive),> 100 µM (inactive),> 100 µM (inactive),> 100 µM (inactive),> 100 µM (inactive),> 100 µM (inactive),> 100 µM (inactive)
Cc1cc(C)c(-n2c(C)c(C)c(C#N)c2N)c(C)c1,29.3 µM (inactive),38.1 µM (inactive),18.8 µM (inactive),19 µM (inactive),37 µM (inactive),27.5 µM (inactive),23 µM (inactive),32.3 µM (inactive),> 100 µM (inactive),87.7 µM (inactive),26.3 µM (inactive),32.4 µM (inactive),17.4 µM (inactive),,36.5 µM (inactive),15.6 µM (inactive),23.4 µM (inactive),
CCc1n[nH]c(=O)[nH]1,,> 100 µM (inactive),> 100 µM (inactive),,> 100 µM (inactive),> 100 µM (inactive),> 100 µM (inactive),> 100 µM (inactive),> 100 µM (inactive),> 100 µM (inactive),> 100 µM (inactive),> 100 µM (inactive),,> 100 µM (inactive),> 100 µM (inactive),> 100 µM (inactive),> 100 µM (inactive),> 100 µM (inactive)
Cc1cc(S(=O)(=O)O)ccc1/N=N/c1ccc(/N=N/c2c(O)ccc3ccccc23)c(C)c1,,> 100 µM (inactive),34.2 µM (inactive),46.7 µM (inactive),54.7 µM (inactive),> 100 µM (inactive),37.9 µM (inactive),> 100 µM (inactive),> 100 µM (inactive),> 100 µM (inactive),> 100 µM (inactive),74 µM (inactive),36.4 µM (inactive),28.8 µM (inactive),50.4 µM (inactive),49.1 µM (inactive),,
O=C(O)c1ccccn1 [2-PICOLINIC ACID],> 100 µM (inactive),,> 100 µM (inactive),> 100 µM (inactive),> 100 µM (inactive),> 100 µM (inactive),> 100 µM (inactive),> 100 µM (inactive),> 100 µM (inactive),> 100 µM (inactive),> 100 µM (inactive),> 100 µM (inactive),> 100 µM (inactive),> 100 µM (inactive),> 100 µM (inactive),> 100 µM (inactive),> 100 µM (inactive),
